Data from ChEMBL document CHEMBL1130987, “The asymmetric synthesis and in vitro characterization of succinyl mercaptoalcohol and mercaptoketone inhibitors of matrix metalloproteinases” (Bioorg Med Chem Lett, 1998).

Experiments:
Interstitial collagenase = target: T1, Interstitial collagenase (Homo sapiens, UniProt P03956); test: Inhibition of matrix metalloprotease-1, Collagenase-1
T1 sequence (P03956 whole entry): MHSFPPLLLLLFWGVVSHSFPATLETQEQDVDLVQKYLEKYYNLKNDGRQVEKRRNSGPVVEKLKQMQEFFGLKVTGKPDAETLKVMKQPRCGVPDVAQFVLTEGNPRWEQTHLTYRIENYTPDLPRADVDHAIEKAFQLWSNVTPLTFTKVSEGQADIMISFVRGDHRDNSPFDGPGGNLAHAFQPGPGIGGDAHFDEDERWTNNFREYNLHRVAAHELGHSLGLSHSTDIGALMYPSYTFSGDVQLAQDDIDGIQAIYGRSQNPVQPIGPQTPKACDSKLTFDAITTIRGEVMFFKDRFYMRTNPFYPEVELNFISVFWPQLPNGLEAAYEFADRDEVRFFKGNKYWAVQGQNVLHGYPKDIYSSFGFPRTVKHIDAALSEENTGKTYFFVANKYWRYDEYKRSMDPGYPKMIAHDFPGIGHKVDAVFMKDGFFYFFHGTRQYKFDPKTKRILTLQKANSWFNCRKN

[1] = target: Matrix metalloproteinase-9 (Homo sapiens, UniProt P14780); test: Inhibition of matrix metalloprotease-9, gelatinase-B
Sequence of Matrix metalloproteinase-9 (P14780 whole entry): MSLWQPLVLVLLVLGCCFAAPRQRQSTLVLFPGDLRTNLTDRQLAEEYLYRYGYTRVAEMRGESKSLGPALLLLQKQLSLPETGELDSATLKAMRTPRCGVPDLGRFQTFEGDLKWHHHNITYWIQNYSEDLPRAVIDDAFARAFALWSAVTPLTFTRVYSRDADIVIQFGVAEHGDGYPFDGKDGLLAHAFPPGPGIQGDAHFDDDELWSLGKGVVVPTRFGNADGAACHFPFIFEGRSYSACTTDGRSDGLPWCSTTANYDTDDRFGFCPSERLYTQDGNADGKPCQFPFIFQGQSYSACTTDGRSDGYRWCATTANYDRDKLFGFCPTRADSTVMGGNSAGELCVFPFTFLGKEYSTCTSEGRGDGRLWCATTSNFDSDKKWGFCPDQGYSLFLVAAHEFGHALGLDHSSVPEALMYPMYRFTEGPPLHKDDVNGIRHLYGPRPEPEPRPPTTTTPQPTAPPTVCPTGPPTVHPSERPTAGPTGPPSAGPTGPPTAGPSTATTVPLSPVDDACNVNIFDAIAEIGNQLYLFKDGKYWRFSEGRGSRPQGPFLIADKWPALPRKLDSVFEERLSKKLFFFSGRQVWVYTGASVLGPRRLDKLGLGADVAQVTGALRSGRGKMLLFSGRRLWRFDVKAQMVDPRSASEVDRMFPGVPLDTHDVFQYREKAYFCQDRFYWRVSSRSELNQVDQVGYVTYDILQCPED

Stromelysin-1 = Stromelysin-1 (Homo sapiens, UniProt P08254); test: Inhibition of matrix metalloprotease-3, stromelysin-1
Sequence of Stromelysin-1 (P08254 whole entry): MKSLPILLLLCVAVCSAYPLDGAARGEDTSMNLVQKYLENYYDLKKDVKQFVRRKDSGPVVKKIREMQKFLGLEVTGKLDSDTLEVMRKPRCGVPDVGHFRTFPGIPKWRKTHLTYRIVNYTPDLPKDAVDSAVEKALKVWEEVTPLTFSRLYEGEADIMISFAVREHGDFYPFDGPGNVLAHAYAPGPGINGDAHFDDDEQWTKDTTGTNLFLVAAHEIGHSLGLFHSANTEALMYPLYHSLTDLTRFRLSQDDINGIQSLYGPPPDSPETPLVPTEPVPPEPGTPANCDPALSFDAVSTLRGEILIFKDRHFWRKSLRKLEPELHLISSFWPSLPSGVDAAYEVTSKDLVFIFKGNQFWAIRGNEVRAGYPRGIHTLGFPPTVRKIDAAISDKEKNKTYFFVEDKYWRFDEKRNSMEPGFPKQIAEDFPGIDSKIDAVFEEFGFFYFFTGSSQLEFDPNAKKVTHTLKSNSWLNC

Row | IC50 (Interstitial collagenase) [nM] | IC50 [1] [nM] | IC50 (Stromelysin-1) [nM] | Structure (SMILES)
1 | 46 | 250 | 3700 | CNC(=O)[C@@H](NC(=O)[C@H](CC(C)C)C[C@@H](O)CS)C(C)(C)C
2 | 5 | 0.14 | 9 | CCCCCCC[C@H](C[C@H](O)CS)C(=O)N[C@H](C(=O)NC)C(C)(C)C
3 | 10 | 0.14 | 8 | CCCCCCC[C@H](CC(=O)CS)C(=O)N[C@H](C(=O)NC)C(C)(C)C
4 | 11 | 8 | 470 | CNC(=O)[C@@H](NC(=O)[C@H](CC(C)C)C[C@H](O)CS)C(C)(C)C
5 | 140 | 12 | 430 | CCCCCCC[C@H](C[C@@H](O)CS)C(=O)N[C@H](C(=O)NC)C(C)(C)C

Second part, the molecule before the results:

Row | Structure (SMILES) | IC50 (Interstitial collagenase) [nM] | IC50 [1] [nM] | IC50 (Stromelysin-1) [nM]
6 | CCCCCCC[C@H](CC(=O)CS)C(=O)N[C@@H](CC(C)C)C(=O)NC(=O)C(CC(C)C)NCC (stereo not given in full) | > 10000 | 20 | 36
7 | CNC(=O)[C@@H](NC(=O)[C@@H](CC(=O)CS)CC(C)C)C(C)(C)C | 11 | 8 | 480
8 | CCCCCCC[C@H](C[C@H](O)CS)C(=O)N[C@@H](CC(C)C)C(=O)NC(=O)C(CC(C)C)NCC (stereo not given in full) | > 4000 | 24 | 39
9 | CNC(=O)[C@@H](NC(=O)[C@@H](CC(=O)NO)CC(C)C)C(C)(C)C [RO-319790] | 5 | – | –
